Activity calls are given as the source filed them. The rule behind the calls is not given here.
Legend:
INS1 [1] = experiment: Cytotoxicity against rat INS1 cells assessed as reduction in cell viability at 2.5 to 10 uM incubated for 24 hrs by MTT assay; type: toxicity, cell-based; conditions: ins1, 24 h, dose 2.5-10 µM
[2] = Induction of glucose stimulated insulin secretion in rat INS1 cells assessed as increase in insulin level at 10 uM incubated for 1 hr; type: functional
[3] = Induction of glucose stimulated insulin secretion in rat INS1 cells assessed as increase in insulin level at 5 uM incubated for 1 hr; type: functional
INS1 [4] = experiment: Upregulation of AKT protein expression in rat INS1 cells at 10 uM incubated for 24 hrs by Western blot analysis; type: functional, cell-based
INS1 [5] = experiment: Upregulation of IRS-2 protein expression in rat INS1 cells at 10 uM incubated for 24 hrs by Western blot analysis; type: functional, cell-based
INS1 [6] = experiment: Upregulation of PDX-1 protein expression in rat INS1 cells at 10 uM incubated for 24 hrs by Western blot analysis; type: functional, cell-based
INS1 [7] = experiment: Upregulation of PI3K protein expression in rat INS1 cells at 10 uM incubated for 24 hrs by Western blot analysis; type: functional, cell-based
INS1 [8] = experiment: Upregulation of PPARgamma protein expression in rat INS1 cells at 10 uM incubated for 24 hrs by Western blot analysis; type: functional, cell-based
INS1 [9] = experiment: Upregulation of PI3K protein expression in rat INS1 cells at 5 uM incubated for 24 hrs by Western blot analysis; type: functional, cell-based
INS1 [10] = experiment: Upregulation of AKT protein expression in rat INS1 cells at 5 uM incubated for 24 hrs by Western blot analysis; type: functional, cell-based
INS1 [11] = experiment: Upregulation of PPARgamma protein expression in rat INS1 cells at 5 uM incubated for 24 hrs by Western blot analysis; type: functional, cell-based
INS1 [12] = experiment: Upregulation of IRS-2 protein expression in rat INS1 cells at 5 uM incubated for 24 hrs by Western blot analysis; type: functional, cell-based
[13] = Induction of glucose stimulated insulin secretion in rat INS1 cells assessed as increase in insulin level at 2.5 uM incubated for 1 hr; type: functional
INS1 [14] = experiment: Upregulation of PDX-1 protein expression in rat INS1 cells at 5 uM incubated for 24 hrs by Western blot analysis; type: functional, cell-based

Structure (SMILES)	Activity (INS1 [1])	Activity [2] [ng/mL]	Activity [3] [ng/mL]	other results
COC(=O)[C@@]12Oc3ccc(-c4ccc5c(c4O)C(=O)C4=C(O)C[C@H](C)[C@@H](O)[C@]4(C(=O)OC)O5)c(O)c3C(=O)C1=C(O)C[C@H](C)[C@H]2O	Non-Toxic	–	–	–
Cc1cc(O)c2c(c1)C(=O)c1cc(O)cc(O)c1C2=O [EMODIN]	Non-Toxic	–	–	–
C=CC(C)(C)[C@@]12C=C(O)C(=O)N3/C(=C/c4c[nH]cn4)C(=O)N[C@]31N(O)c1ccccc12	Non-Toxic	12.86	12.05	–
C/C=C/CCC(=O)c1cc(C)c(O)c(C)c1O	Non-Toxic	15.57	8.92	Activity (INS1 [4]): Active; Activity (INS1 [5]): Active; Activity (INS1 [6]): Active; Activity (INS1 [7]): Active; Activity (INS1 [8]): Active
Cc1cc(O)c2c(c1)C(=O)c1cccc(O)c1C2=O [CHRYSOPHANOL]	Non-Toxic	24.23	20.01	Activity (INS1 [9]): Active; Activity (INS1 [10]): Active; Activity (INS1 [11]): Active; Activity (INS1 [12]): Active; Activity [13]: 8.81 ng/mL; Activity (INS1 [14]): Active
Cc1ccc(S(=O)(=O)NC(=O)NN2CC3CCCC3C2)cc1 (stereo unspecified) [GLICLAZIDE]	–	20.85	9.69	–
C=CC(C)(C)[C@@]12C=C(O)C(=O)N3/C(=C/c4cnc[nH]4)C(=O)N[C@]31N(OC)c1ccccc12	Non-Toxic	–	–	–
CC(O)c1nc2ccccc2c(=O)[nH]1 (stereo unspecified)	Non-Toxic	–	–	–

Source: ChEMBL document CHEMBL5252573, “2,3-Dihydrosorbicillin and chrysopanol stimulate insulin secretion in INS-1 cells” (Bioorg Med Chem Lett, 2023)
